From patent US20080009418A1, “Selective Inhibitors” (Alchemia LTD., priority 2004, published 2008)

Assays:
Human opioid (ORL1) = biological target: T1, Human opioid (ORL1) (Homo sapiens, UniProt P41146); assay: Radioligand binding, human opioid ORL1 membranes, FlashPlate, [125I]-Nociceptin; conditions: compound at 10 μM, [125I]-Nociceptin
T1 construct: purchased Perkin Elmer Biosignal
Method in brief: (§1)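 Cloned human receptor membranes were coated onto FlashPlate wells and incubated with radioligand and compound (added from a 0.5 mM DMSO daughter plate) for 1 hour at room temperature in the dark. Scintillation counting gave percent inhibition, with DMSO defining total and reference ligand defining non-specific binding.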

Human melanocortin (MC5) = biological target: T2, Human melanocortin (MC5) (Homo sapiens, UniProt P33032); assay: Radioligand binding, human melanocortin MC5 membranes, FlashPlate, [125I]-NDP-αMSH; conditions: compound at 10 μM, [125I]-NDP-αMSH
T2 construct: purchased Perkin Elmer Biosignal
Method in brief: as §1

Mouse urotensin (mUR2) = biological target: T3, Mouse urotensin (mUR2) (Mus musculus, UniProt Q8VIH9); assay: Radioligand binding, mouse urotensin mUR2 membranes, FlashPlate, [125I]-Urotensin II; conditions: compound at 10 μM, [125I]-Urotensin II
T3 construct: purchased Perkin Elmer Biosignal
T3 sequence (Q8VIH9 1-385): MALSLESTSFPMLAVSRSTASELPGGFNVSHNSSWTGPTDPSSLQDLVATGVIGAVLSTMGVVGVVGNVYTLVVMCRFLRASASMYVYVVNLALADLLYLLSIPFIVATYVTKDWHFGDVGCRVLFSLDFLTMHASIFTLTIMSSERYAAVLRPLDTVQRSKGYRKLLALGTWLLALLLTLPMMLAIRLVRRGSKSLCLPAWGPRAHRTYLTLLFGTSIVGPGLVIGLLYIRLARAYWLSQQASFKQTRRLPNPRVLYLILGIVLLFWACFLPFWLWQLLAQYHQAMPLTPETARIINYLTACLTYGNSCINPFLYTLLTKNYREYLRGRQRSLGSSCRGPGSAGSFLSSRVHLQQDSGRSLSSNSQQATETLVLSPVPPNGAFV
Method in brief: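 Cloned mouse urotensin (mUR2) receptor membranes from Perkin Elmer Biosignal were immobilized in FlashPlate microplates using a proprietary coating. Each well got 19.5 μl buffer, then 0.5 μl of DMSO, reference ligand, or compound. Adding 5 μl of [125I]-Urotensin II, diluted to 5× final concentration in binding buffer, started binding. Plates were sealed with TopSeal-A and incubated 1 hour at room temperature in the dark. Wells were counted for 30 seconds each on a TopCount after a 60-second delay, and percentage inhibition was calculated.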

Human Melanocortin (MC4) = biological target: T4, Human Melanocortin (MC4) (Homo sapiens, UniProt P32245); assay: Radioligand binding, human melanocortin MC4 membranes, FlashPlate, [125I]-NDP-αMSH; conditions: compound at 10 μM, [125I]-NDP-αMSH
T4 construct: purchased Perkin Elmer Biosignal
Method in brief: as §1

Human Melanocortin (MC3) = biological target: T5, Human Melanocortin (MC3) (Homo sapiens, UniProt P41968); assay: Radioligand binding, human melanocortin MC3 membranes, FlashPlate, [125I]-NDP-αMSH; conditions: compound at 10 μM, [125I]-NDP-αMSH
T5 construct: purchased Perkin Elmer Biosignal
Method in brief: as §1

Human neurokinin (NK1) = biological target: T6, Human neurokinin (NK1) (Homo sapiens, UniProt P25103); assay: Radioligand binding, human neurokinin NK1 membranes, filtration, [125I]-Substance P; conditions: compound at 10 μM, [125I]-Substance P
T6 construct: purchased Perkin Elmer Biosignal
Method in brief: (§2)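 Filtration binding on cloned human receptor membranes (1 Unit/well), [125I]-Substance P for NK1 and [3H]-Diprenorphine for KOP, 1 h at room temperature. Filters PEI-presoaked, washed with cold 50 mM Tris-HCl pH 7.4, counted by scintillation; percent inhibition calculated, reference ligand defining non-specific binding.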

Human κ-Opioid (KOP) = biological target: T7, Human κ-Opioid (KOP) (Homo sapiens, UniProt P41145); assay: Radioligand binding, human κ-opioid (KOP) membranes, filtration, [3H]-Diprenorphine; conditions: compound at 10 μM, [3H]-Diprenorphine
T7 construct: purchased Perkin Elmer Biosignal
Method in brief: as §2

[1] = biological target: T8, Human melanin-concentrating hormone (MCH1) (Homo sapiens, UniProt Q99705); assay: Radioligand binding, human melanin-concentrating hormone MCH1 membranes, FlashPlate, [125I]-S36057; conditions: compound at 10 μM; for A6 radioligand binding, percentage inhibition: [125I]-S36057
T8 construct: purchased Perkin Elmer Biosignal
Method in brief: as §1

Human δ-opioid (DOP) = biological target: T9, Human δ-opioid (DOP) (Homo sapiens, UniProt P41143); assay: Radioligand binding, human δ-opioid (DOP) membranes, FlashPlate, [3H]-Bremazocine; conditions: compound at 10 μM, [3H]-Bremazocine
T9 construct: purchased Perkin Elmer Biosignal
Method in brief: as §1

[2] = biological target: T10, Human neuropeptide Y (NPY-Y1) (Homo sapiens, UniProt P25929); assay: Radioligand binding, human neuropeptide Y NPY-Y1 membranes, FlashPlate, [125I]-PYY; conditions: compound at 10 μM, [125I]-PYY
T10 construct: purchased Perkin Elmer Biosignal
T10 sequence (P25929 1-384): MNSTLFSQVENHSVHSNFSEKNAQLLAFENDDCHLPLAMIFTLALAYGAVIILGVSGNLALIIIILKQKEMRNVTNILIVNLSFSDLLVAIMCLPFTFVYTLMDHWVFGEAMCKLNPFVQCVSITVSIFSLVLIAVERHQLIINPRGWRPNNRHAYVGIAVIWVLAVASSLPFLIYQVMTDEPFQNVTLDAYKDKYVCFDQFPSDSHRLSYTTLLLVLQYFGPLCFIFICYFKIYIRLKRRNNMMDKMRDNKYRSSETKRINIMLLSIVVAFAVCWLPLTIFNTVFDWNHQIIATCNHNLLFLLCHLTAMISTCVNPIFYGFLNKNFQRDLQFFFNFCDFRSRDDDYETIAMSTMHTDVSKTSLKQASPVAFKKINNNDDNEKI
Method in brief: as §1

Human μ-opioid (MOP) = biological target: T11, Human μ-opioid (MOP) (Homo sapiens, UniProt P35372); assay: Radioligand binding, human μ-opioid (MOP) membranes, FlashPlate, [3H]-Naloxone; conditions: compound at 10 μM, [3H]-Naloxone
T11 construct: purchased Perkin Elmer Biosignal
Method in brief: as §1

[3] = [125I]-S36057, human MCH1 membranes

T7 sequence (P41145 whole entry): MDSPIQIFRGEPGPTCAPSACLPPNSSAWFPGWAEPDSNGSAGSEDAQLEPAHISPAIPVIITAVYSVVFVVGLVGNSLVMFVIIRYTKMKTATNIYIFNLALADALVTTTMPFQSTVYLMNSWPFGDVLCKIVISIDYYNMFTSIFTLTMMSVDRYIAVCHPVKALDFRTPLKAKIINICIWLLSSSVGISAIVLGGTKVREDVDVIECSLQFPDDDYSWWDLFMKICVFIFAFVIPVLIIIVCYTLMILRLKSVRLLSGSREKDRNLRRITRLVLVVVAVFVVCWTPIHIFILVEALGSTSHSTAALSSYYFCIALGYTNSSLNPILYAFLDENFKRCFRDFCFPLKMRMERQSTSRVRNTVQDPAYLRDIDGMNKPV
T8 sequence (Q99705 whole entry): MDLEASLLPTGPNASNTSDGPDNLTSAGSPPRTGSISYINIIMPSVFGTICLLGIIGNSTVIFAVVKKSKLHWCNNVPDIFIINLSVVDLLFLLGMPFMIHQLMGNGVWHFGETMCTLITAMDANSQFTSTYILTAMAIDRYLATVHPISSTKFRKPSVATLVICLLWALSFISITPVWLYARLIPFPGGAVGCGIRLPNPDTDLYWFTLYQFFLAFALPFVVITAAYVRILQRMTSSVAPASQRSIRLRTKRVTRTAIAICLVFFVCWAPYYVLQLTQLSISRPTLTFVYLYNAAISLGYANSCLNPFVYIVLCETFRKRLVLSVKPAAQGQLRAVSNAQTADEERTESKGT
T2 sequence (P33032 whole entry): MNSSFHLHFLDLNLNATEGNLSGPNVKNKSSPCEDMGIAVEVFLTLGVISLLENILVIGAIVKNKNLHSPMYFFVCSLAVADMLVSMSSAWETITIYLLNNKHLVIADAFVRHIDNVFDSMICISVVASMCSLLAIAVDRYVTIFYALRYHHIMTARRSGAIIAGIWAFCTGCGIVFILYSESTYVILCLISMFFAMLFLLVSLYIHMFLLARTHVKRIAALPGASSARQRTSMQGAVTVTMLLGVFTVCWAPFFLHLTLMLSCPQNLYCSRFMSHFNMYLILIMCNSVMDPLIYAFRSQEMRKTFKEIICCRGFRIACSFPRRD
T1 sequence (P41146 whole entry): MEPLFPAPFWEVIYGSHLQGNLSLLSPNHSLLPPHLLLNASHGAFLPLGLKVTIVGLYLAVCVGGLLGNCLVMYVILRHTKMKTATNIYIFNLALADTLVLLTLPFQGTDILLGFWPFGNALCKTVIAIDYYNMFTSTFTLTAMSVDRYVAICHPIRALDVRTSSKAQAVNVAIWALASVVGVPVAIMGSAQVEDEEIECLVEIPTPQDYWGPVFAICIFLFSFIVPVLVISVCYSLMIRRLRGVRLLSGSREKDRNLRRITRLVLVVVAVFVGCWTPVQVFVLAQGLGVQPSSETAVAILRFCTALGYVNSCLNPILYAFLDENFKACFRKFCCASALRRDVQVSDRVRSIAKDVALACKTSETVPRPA
T5 sequence (P41968 whole entry): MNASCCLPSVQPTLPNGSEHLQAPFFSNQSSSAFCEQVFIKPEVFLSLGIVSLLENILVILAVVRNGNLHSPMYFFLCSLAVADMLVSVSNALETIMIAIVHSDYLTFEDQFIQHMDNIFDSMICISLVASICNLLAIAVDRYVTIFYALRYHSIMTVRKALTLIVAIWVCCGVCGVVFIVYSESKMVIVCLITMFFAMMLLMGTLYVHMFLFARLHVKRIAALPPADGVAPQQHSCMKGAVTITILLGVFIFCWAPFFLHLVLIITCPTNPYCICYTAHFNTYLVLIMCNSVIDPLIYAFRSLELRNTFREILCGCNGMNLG
T4 sequence (P32245 whole entry): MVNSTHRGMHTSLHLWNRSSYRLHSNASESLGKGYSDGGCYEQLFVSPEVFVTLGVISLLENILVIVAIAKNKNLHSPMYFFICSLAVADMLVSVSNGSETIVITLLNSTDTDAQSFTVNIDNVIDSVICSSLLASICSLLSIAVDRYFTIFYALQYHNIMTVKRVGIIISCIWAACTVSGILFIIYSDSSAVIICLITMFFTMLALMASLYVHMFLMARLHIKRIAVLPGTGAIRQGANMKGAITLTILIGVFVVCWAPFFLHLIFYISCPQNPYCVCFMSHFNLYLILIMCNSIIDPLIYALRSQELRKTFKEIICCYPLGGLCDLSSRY
T11 sequence (P35372 whole entry): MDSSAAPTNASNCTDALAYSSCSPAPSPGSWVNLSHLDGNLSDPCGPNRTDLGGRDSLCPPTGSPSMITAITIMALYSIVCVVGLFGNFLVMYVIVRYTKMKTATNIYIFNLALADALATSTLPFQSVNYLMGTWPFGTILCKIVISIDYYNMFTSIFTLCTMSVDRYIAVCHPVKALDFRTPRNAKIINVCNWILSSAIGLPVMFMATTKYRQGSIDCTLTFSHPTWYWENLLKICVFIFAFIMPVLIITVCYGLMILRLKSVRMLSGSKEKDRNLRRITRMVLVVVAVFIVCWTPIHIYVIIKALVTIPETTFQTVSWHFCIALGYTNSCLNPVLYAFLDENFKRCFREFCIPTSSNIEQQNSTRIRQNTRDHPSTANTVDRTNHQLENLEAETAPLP
T6 sequence (P25103 whole entry): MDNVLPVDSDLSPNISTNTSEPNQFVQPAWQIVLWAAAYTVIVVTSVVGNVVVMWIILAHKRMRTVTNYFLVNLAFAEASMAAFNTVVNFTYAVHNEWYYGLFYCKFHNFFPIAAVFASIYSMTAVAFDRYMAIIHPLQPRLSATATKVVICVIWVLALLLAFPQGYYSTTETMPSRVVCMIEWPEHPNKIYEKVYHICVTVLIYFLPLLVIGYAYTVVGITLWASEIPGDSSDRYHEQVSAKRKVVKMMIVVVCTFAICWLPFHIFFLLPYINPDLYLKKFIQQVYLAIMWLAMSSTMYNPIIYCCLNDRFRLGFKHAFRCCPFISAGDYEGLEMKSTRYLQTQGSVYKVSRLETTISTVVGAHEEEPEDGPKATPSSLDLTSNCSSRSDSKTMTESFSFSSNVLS
T9 sequence (P41143 whole entry): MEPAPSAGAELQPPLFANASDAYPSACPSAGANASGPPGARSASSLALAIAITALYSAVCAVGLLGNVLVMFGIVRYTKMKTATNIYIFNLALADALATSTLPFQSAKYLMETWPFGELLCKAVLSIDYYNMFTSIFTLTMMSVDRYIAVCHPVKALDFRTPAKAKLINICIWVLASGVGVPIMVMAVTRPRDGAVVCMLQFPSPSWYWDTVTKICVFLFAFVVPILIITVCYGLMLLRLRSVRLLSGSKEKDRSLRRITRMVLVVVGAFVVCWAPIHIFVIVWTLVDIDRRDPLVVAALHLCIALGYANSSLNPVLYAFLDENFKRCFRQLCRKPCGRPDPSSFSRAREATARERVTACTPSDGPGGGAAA

Row | Compound | A10 radioligand binding, percentage inhibition (Human opioid (ORL1)) | A5 radioligand binding, percentage inhibition (Human melanocortin (MC5)) | A11 radioligand binding, percentage inhibition (Mouse urotensin (mUR2)) | A4 radioligand binding, percentage inhibition (Human Melanocortin (MC4)) | A3 radioligand binding, percentage inhibition (Human Melanocortin (MC3)) | A8 radioligand binding, percentage inhibition (Human neurokinin (NK1)) | A2 radioligand binding, percentage inhibition (Human κ-Opioid (KOP)) | A6 radioligand binding, percentage inhibition [1] | A1 radioligand binding, percentage inhibition (Human δ-opioid (DOP)) | A9 radioligand binding, percentage inhibition [2] | A7 radioligand binding, percentage inhibition (Human μ-opioid (MOP)) | A10: inhibition of radioligand binding (Human opioid (ORL1); human ORL1 membranes) | A5: inhibition of radioligand binding (Human melanocortin (MC5); human MC5 membranes) | A11: inhibition of radioligand binding (Mouse urotensin (mUR2); mouse mUR2 membranes) | A4: inhibition of radioligand binding (Human Melanocortin (MC4); human MC4 membranes) | A3: inhibition of radioligand binding (Human Melanocortin (MC3); human MC3 membranes) | A8: inhibition of radioligand binding (Human neurokinin (NK1); human NK1 membranes) | A2: inhibition of radioligand binding (Human κ-Opioid (KOP); human KOP membranes) | A6: inhibition of radioligand binding [1, 3] | A1: inhibition of radioligand binding (Human δ-opioid (DOP); human DOP membranes) | other results
1 | CO[C@H]1[C@H](O)[C@@H](COCc2ccccc2)OC(OCc2ccc(Cl)cc2)[C@@H]1NC(=O)CNC(=N)N (stereo partly shown) [compound 101] | − (“−” indicates less than 50% inhibition at 10 μM) | + (“+” indicates greater than 50% inhibition at 10 μM) | − (“−” indicates less than 50% inhibition at 10 μM) | − (“−” indicates less than 50% inhibition at 10 μM) | − (“−” indicates less than 50% inhibition at 10 μM) | − (“−” indicates less than 50% inhibition at 10 μM) | − (“−” indicates less than 50% inhibition at 10 μM) | − (“−” indicates less than 50% inhibition at 10 μM) | − (“−” indicates less than 50% inhibition at 10 μM) | − (“−” indicates less than 50% inhibition at 10 μM) | − (“−” indicates less than 50% inhibition at 10 μM) |  |  |  |  |  |  |  |  |  | 
2 | N=C(N)NCCC(=O)NC1C(OCc2ccc(Cl)cc2)OC(COCc2ccc(Cl)cc2)C(O)C1OCc1ccc(-c2ccccc2)cc1 (stereo not shown) [compound 434] |  |  |  |  |  |  |  |  |  |  |  | − (“−” indicates less than 50% inhibition at 10 μM) | + (“+” indicates greater than 50% inhibition at 10 μM) | − (“−” indicates less than 50% inhibition at 10 μM) | + (“+” indicates greater than 50% inhibition at 10 μM) | + (“+” indicates greater than 50% inhibition at 10 μM) | + (“+” indicates greater than 50% inhibition at 10 μM) | − (“−” indicates less than 50% inhibition at 10 μM) | + (“+” indicates greater than 50% inhibition at 10 μM) | − (“−” indicates less than 50% inhibition at 10 μM) | A9: inhibition of radioligand binding ([2]; human NPY-Y1 membranes): − (“−” indicates less than 50% inhibition at 10 μM); A7: inhibition of radioligand binding (Human μ-opioid (MOP); human MOP membranes): − (“−” indicates less than 50% inhibition at 10 μM)
3 | COCC1OC(OCCc2ccccc2)C(NC(=O)CN)C(OCc2ccc3ccccc3c2)C1O (stereo not shown) [compound 225] |  |  |  |  |  |  |  |  |  |  |  |  |  |  |  |  |  |  |  |  | A10: inhibition of radioligand binding (Human opioid (ORL1); FlashPlate): − (“−” indicates less than 50% inhibition at 10 μM); A5: inhibition of radioligand binding (Human melanocortin (MC5); FlashPlate): − (“−” indicates less than 50% inhibition at 10 μM); A11: inhibition of radioligand binding (Mouse urotensin (mUR2); FlashPlate): − (“−” indicates less than 50% inhibition at 10 μM); A4: inhibition of radioligand binding (Human Melanocortin (MC4); FlashPlate): − (“−” indicates less than 50% inhibition at 10 μM); A3: inhibition of radioligand binding (Human Melanocortin (MC3); FlashPlate): − (“−” indicates less than 50% inhibition at 10 μM); A8: inhibition of radioligand binding (Human neurokinin (NK1); filtration): + (“+” indicates greater than 50% inhibition at 10 μM); A2: inhibition of radioligand binding (Human κ-Opioid (KOP); filtration): − (“−” indicates less than 50% inhibition at 10 μM); A6: inhibition of radioligand binding ([1]; [125I]-S36057, FlashPlate): − (“−” indicates less than 50% inhibition at 10 μM); A1: inhibition of radioligand binding (Human δ-opioid (DOP); FlashPlate): − (“−” indicates less than 50% inhibition at 10 μM); A9: inhibition of radioligand binding ([2]; FlashPlate): − (“−” indicates less than 50% inhibition at 10 μM); A7: inhibition of radioligand binding (Human μ-opioid (MOP); FlashPlate): − (“−” indicates less than 50% inhibition at 10 μM)
4 | N=C(N)NCC(=O)NC1C(OCc2ccc(Cl)cc2)OC(COCc2ccc(Cl)cc2)C(O)C1OCc1ccc2ccccc2c1 (stereo not shown) [compound 422] |  |  |  |  |  |  |  |  |  |  |  | + (“+” indicates greater than 50% inhibition at 10 μM) | + (“+” indicates greater than 50% inhibition at 10 μM) | − (“−” indicates less than 50% inhibition at 10 μM) | + (“+” indicates greater than 50% inhibition at 10 μM) | + (“+” indicates greater than 50% inhibition at 10 μM) | + (“+” indicates greater than 50% inhibition at 10 μM) | − (“−” indicates less than 50% inhibition at 10 μM) | + (“+” indicates greater than 50% inhibition at 10 μM) | − (“−” indicates less than 50% inhibition at 10 μM) | A9: inhibition of radioligand binding ([2]; human NPY-Y1 membranes): − (“−” indicates less than 50% inhibition at 10 μM); A7: inhibition of radioligand binding (Human μ-opioid (MOP); human MOP membranes): − (“−” indicates less than 50% inhibition at 10 μM)
5 | CO[C@H]1[C@H](O)[C@@H](COCc2ccc(-c3ccccc3)cc2)OC(OCc2cccc(O)c2)[C@@H]1NC(=O)CCNC(=N)N (stereo partly shown) [compound 163] | − (“−” indicates less than 50% inhibition at 10 μM) | + (“+” indicates greater than 50% inhibition at 10 μM) | − (“−” indicates less than 50% inhibition at 10 μM) | + (“+” indicates greater than 50% inhibition at 10 μM) | + (“+” indicates greater than 50% inhibition at 10 μM) | + (“+” indicates greater than 50% inhibition at 10 μM) | − (“−” indicates less than 50% inhibition at 10 μM) | − (“−” indicates less than 50% inhibition at 10 μM) | − (“−” indicates less than 50% inhibition at 10 μM) | − (“−” indicates less than 50% inhibition at 10 μM) | − (“−” indicates less than 50% inhibition at 10 μM) |  |  |  |  |  |  |  |  |  | 
